Results published in ChEMBL document CHEMBL1141379, “Selective inhibitory activity against MAO and molecular modeling studies of 2-thiazolylhydrazone derivatives” (J Med Chem, 2007).

The compounds below were run against T1, Amine oxidase [flavin-containing] A (Bos taurus, UniProt P21398) (assay: Inhibition of bovine brain mitochondria MAOA).
T1 sequence (P21398 whole entry): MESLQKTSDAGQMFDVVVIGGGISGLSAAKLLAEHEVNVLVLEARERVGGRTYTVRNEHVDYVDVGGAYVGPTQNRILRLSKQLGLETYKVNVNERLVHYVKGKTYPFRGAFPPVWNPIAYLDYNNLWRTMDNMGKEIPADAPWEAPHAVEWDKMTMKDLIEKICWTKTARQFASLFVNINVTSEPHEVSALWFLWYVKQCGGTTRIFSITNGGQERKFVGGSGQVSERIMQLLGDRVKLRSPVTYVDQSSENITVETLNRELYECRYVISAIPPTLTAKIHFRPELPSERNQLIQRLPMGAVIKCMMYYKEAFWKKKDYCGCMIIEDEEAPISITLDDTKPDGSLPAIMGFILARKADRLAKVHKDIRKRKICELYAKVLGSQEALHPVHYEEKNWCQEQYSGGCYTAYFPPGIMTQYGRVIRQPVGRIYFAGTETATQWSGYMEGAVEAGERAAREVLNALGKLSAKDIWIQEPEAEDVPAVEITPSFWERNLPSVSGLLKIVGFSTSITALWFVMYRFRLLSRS

Row | SMILES | Ki
1 | Cc1csc(N/N=C/c2ccccc2C)n1 | 0.0355 µM
2 | Cc1csc(N/N=C/c2ccccc2)n1 | 0.00724 µM
3 | Cc1csc(N/N=C/c2ccc(Cl)cc2Cl)n1 | 0.012 µM
4 | Clc1ccc(/C=N/Nc2nc(-c3ccccc3)cs2)c(Cl)c1 | 0.0933 µM
5 | COc1ccc(/C=N/Nc2nc(C)cs2)cc1 | 0.0191 µM
6 | Cc1csc(N/N=C/c2ccc(Cl)cc2)n1 | 0.038 µM
7 | COc1ccc(/C=N/Nc2nc(-c3ccccc3)cs2)cc1 | 0.0501 µM
8 | COc1ccc(/C=N/Nc2nc(C)cs2)cc1OC | 0.0132 µM
9 | C(=N\Nc1nc(-c2ccccc2)cs1)/c1ccccc1 | 1.2 µM
10 | COc1ccc(/C=N/Nc2nc(-c3ccccc3)cs2)cc1OC | 0.0302 µM
11 | Clc1ccc(/C=N/Nc2nc(-c3ccccc3)cs2)cc1 | 0.1 µM
